# Test results: patent US6620911B1, “Anti-cryptococcal peptides” (Arizona Board of Regents, acting for and on behalf of …, priority 1998, dated 2003)
# Columns and labels:
# [1] = tested on: Cryptococcus neoformans; experiment: Broth macrodilution assay (MIC, MFC), ATCC strains; assay type: cell-based; details: C. neoformans #14116
# Method: (§1) Dolastatin 10 and modifications were screened against yeasts by the broth macrodilution assay according to the NCCLS (National Committee for Clinical Laboratory Standards, Reference Method for Broth Dilution Antifungal Susceptibility Testing of Yeasts: Approved Standard M27-A, NCCLS, Wayne, Pa., 1997). Yeasts were suspended and diluted as recommended to yield final inocula ranging from 0.5-2.5×10^3 colony forming units (CFU)/ml. Tests were performed in sterile 12×75 mm plastic tubes containing two-fold dilutions of the peptides in 0.165 M morpholinepropanesulfonic acid (MOPS)-buffered RPMI 1640 medium (pH 7.0). One tube was left drug-free for a turbidity control. Tubes were incubated without agitation at 35° C. (25° C. for C. albidus and C. laurentii). MICs were determined after 72 h for Cryptococcus, and after
# (§2) 48 h for other yeast genera. The MIC was defined as the lowest concentration of compound that inhibited all visible growth of the test organism.
# (§3) Minimum fungicidal concentrations (MFCs) were determined by subculturing 0.1 ml from each tube with no visible growth in the MIC broth macrodilution series onto drug-free SDA plates. The plates were incubated at 35° C. for 48 h for Cryptococcus (25° C. for C. alhidus and C. laurentii), and 35° C. for 24 h for all other yeast and filamentous fungi.
# [2] = tested on: Candida glabrata; experiment: Disk diffusion susceptibility testing; assay type: cell-based; details: ATCC 90030
# Method: (§4) Antimicrobial activity was assayed by disk susceptibility tests according to the NCCLS (National Committee for Clinical Laboratory Standards, Performance Standards for Antimicrobial Disk Susceptibility Tests-Sixth Edition: Approved standard M2-A6, NCCLS, Wayne, Pa., 1997). Inocula were adjusted to a density of 0.10 at 625 nm in SDA broth, and spread on SDA plates. Excess moisture was allowed to absorb for 10 min before applying dried disks containing two-fold dilutions of the drugs. Test plates were incubated at 35° C. (25° C. for C. albidus and C. laurentii), and zones of inhibition recorded after 48 h. The minimum inhibitory concentration (MIC) was defined as the lowest concentration of drug resulting in a clear zone of growth inhibition. Disk susceptibility testing of Staphylococcus aureus, Enterococcus faecalis, Escherichia coli and Neisseria gonorrhoeae was also performed.
# [3] = tested on: Cryptococcus laurentii; experiment: Disk diffusion susceptibility testing; assay type: cell-based; details: ATCC 66036
# Method: as §4
# [4] = tested on: Cryptococcus albidus; experiment: Disk diffusion susceptibility testing; assay type: cell-based; details: ATCC 66030
# Method: as §4
# [5] = tested on: Cryptococcus neoformans; experiment: Disk diffusion susceptibility testing; assay type: cell-based; details: ATCC 90112
# Method: as §4
# [6] = tested on: Candida albicans; experiment: Disk diffusion susceptibility testing; assay type: cell-based; details: ATCC 90028
# Method: as §4
# [7] = tested on: Cryptococcus neoformans #90112; experiment: Effect of host factors (pH, human serum) on broth macrodilution MICs and MFCs; assay type: cell-based; details: acidified RPMI
# Method: as §1, §2, §3
# Broth macrodilution assays were performed with RPMI prepared at pH 5, pH 6 and pH 7, and in RPMI, with and without 50% normal human serum (Lampire Biological Labs). Cryptococcus neoformans #90112 was used in each case.
# [8] = tested on: clinical isolates of C. neoformans; experiment: Broth macrodilution (MIC, MFC), 19 clinical isolates; assay type: cell-based, Cryptococcus neoformans
# Source text: Clinical isolates of C. neoformans were obtained from patient cerebrospinal fluid, blood, bone marrow, sputum, bronchial lavage and wound infections at the University of Virginia Medical Center, Strains clinically resistant to fluconazole (See: Jessup, C. J. et al, 1997; Poster #F-88, 37th ICAAC, Toronto, Canada) were provided by the Center for Medical Mycology, Case Western Reserve University. Yeast strains (except for C. albidus and C. laurentii) were maintained by single colony transfer on Sabouraud Dextrose Agar (SDA), pH 5.6 at 35° C. Cryptococcus albidus, C. laurentii and C. uniguttulatus (#66033) were maintained on SDA, pH 6.6 at 25° C., C. uniguttulatus (#34143) and C. ater on Yeast Morphology (YM) agar at 25° C. and filamentous fungi were maintained on Potato Dextrose Agar (PDA) slants at 35° C.
# as §1, §2, §3
# [9] = tested on: C. neoformans (#90112); experiment: Killing kinetics; assay type: cell-based, Cryptococcus neoformans; details: 1x, 4x, 8x MIC, FIG. 2
# Method: Overnight cultures of C. neoformans (#90112) in Ph 7.0 MOPS-buffered RPMI 1640 medium were inoculated into the same medium containing multiples of the broth macrodilution MIC of the antifungal peptides, or an equivalent volume of DMSO. Cultures were shaken at 35° C., and aliquots aseptically removed at various times for dilution plating.
Structure (SMILES),MFC relative to MIC [1],MIC [2] [μg/disk],MIC [3] [μg/disk],MIC [4] [μg/disk],MIC [5],MIC [6] [μg/disk],effect of lowered pH on anticryptococcal activity [7],MFC50 ([8]; 19 clinical isolates) [µg/mL],MFC90 ([8]; 19 clinical isolates) [µg/mL],MIC50 (MIC at which 50% of the isolates were inhibited) ([8]; 19 clinical isolates) [µg/mL],MIC90 (MIC at which 90% of the isolates were inhibited) ([8]; 19 clinical isolates) [µg/mL],"clinical isolate MFCs, range ([8]; 19 clinical isolates) [µg/mL]",share of clinical isolates with MFC/MIC ratio equal to 4 ([8]; 19 clinical isolates) [%],share of clinical isolates with MFC/MIC ratio less than or equal to 2 ([8]; 19 clinical isolates),resistant clinical isolates ([8]; 19 clinical isolates (not fluconazole-resistant strains)),recovery: MFCs after the recommended incubation period compared with one week later ([8]; clinical isolates),"fungicidal action, reductions in CFUs [9]"
CCC(C)C(C(CC(=O)N1CCC[C@H]1C(OC)C(C)C(=O)NC(Cc1ccccc1)C(=O)Nc1nnc(-c2ccccc2)s1)OC)N(C)C(=O)[C@@H](NC(=O)[C@H](C(C)C)N(C)C)C(C)C (some centres unmarked) [1b],sixteenfold greater than MICs,>100,>100,>100,3.12-6.25 μg/disk,>100,,,,,,,,,,,
CCC(C)C(C(CC(=O)N1CCC[C@H]1C(OC)C(C)C(=O)NC(Cc1ccccc1)C(=O)OC)OC)N(C)C(=O)[C@@H](NC(=O)[C@H](C(C)C)N(C)C)C(C)C (some centres unmarked) [1d],,,>100,>100,3.12-6.25 μg/disk,>100,least affected by lowered pH,0.39,0.78,0.195,0.39,0.0975 to 6.24,26,more than 68%,No resistant clinical isolates were found,no evidence of recovery,most dramatic reductions in CFUs
CCC(C)C(C(CC(=O)N1CCC[C@H]1C(OC)C(C)C(=O)NC(CCSC)C(=O)Nc1cnc2ccccc2c1)OC)N(C)C(=O)[C@@H](NC(=O)[C@H](C(C)C)N(C)C)C(C)C (some centres unmarked) [1e],,,,,25-50 μg/disk,>100,,,,,,,,,,,
